# Assay results: patent publication US20070043049A1, “Substituted heterocyclic diarylamine analogues” (Neurogen Corporation, priority 2003, published 2007)
# Molecular target: T1, human capsaicin receptor (Homo sapiens, UniProt Q8NER1)
# T1 construct: pBK-CMV expression construct encoding the full length human capsaicin receptor; expressed in transfected cells
# Test: Calcium mobilization assay, determination of antagonist activity (Example 6)
# Type: cell-based
# Conditions: 50% decrease in fluorescence response of cells expressing human capsaicin receptor exposed to capsaicin
# How it was run: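 HEK293 cells stably expressing full-length human capsaicin receptor, Fluo-3 AM loaded, preincubated with compound 0.5–6 h at room temperature in KRH buffer pH 7.4. Challenged with capsaicin at its EC50; FLIPR fluorescence read. IC50 is concentration halving the capsaicin-induced calcium response.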
# T1 sequence (Q8NER1 whole entry): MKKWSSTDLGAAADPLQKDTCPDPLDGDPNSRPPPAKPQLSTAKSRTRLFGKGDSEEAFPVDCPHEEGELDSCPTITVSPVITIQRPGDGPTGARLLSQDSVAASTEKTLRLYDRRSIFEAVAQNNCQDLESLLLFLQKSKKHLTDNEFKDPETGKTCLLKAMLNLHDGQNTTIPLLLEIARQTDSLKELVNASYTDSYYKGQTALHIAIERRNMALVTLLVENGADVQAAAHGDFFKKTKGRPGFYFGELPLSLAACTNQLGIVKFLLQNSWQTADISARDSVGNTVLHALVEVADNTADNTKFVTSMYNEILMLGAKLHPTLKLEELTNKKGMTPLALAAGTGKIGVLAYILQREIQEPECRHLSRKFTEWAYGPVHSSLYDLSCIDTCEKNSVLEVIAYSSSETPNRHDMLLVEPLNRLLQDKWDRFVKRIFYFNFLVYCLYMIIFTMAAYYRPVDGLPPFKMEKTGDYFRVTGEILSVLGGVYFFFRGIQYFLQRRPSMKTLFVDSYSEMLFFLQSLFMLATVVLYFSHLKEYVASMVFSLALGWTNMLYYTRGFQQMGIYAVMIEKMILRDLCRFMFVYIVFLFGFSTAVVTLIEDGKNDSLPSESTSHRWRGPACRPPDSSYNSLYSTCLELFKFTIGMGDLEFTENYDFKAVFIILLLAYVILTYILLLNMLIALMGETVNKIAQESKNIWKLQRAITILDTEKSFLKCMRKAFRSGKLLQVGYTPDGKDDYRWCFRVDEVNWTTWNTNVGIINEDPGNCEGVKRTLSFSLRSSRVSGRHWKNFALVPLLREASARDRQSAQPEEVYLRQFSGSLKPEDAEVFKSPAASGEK
row,IC50 [nM],SMILES
1,≤ 1000,"Fc1cccc(Nc2nc(N3CCCC3)nc(N3CCN(c4ncccc4Cl)CC3)n2)c1 [Compound 73, {4-[4-(3-Chloro-pyridin-2-yl)-piperazin-1-yl]-6-pyrrolidin-1-yl-[1,3,5]triazin-2-yl}-(3-fluoro-phenyl)-amine]"
2,≤ 1000,"COc1cccc(Nc2nc(N3CCOCC3)cc(N3CCN(c4ncccc4C(F)(F)F)CC3)n2)c1 [Compound 88, (3-Methoxy-phenyl)-{4-morpholin-4-yl-6-[4-(3-trifluoromethyl-pyridin-2-yl)-piperazin-1-yl]-pyrimidin-2-yl}-amine]"
3,≤ 1000,"CN(C)c1nc(Nc2ccc(C(F)(F)F)cc2)nc(N2CCN(c3ncccc3C(F)(F)F)CC2)n1 [Compound 20, N,N-Dimethyl-N′-(4-trifluoromethyl-phenyl)-6-[4-(3-trifluoromethyl-pyridin-2-yl)-piperazin-1-yl]-[1,3,5]triazine-2,4-diamine]"
4,≤ 1000,"CC(C)(C)c1ccc(Nc2nc(OCc3ccccc3C(F)(F)F)nc(N3CCN(c4ccccn4)CC3)n2)cc1 [Compound 11, (4-tert-Butyl-phenyl)-[4-(4-pyridin-2-yl-piperazin-1-yl)-6-(2-trifluoromethyl-benzyloxy)-[1,3,5]triazin-2-yl]-amine]"
5,≤ 1000,"CCN(CC)c1nc(Nc2ccc(F)c(F)c2)nc(N2CCN(c3ncccc3Cl)CC2)n1 [Compound 91, 6-[4-(3-Chloro-pyridin-2-yl)-piperazin-1-yl]-N-(3,4-difluoro-phenyl)-N′,N′-diethyl-[1,3,5]triazine-2,4-diamine]"
6,≤ 1000,"CC(C)N(C)c1nc(Nc2ccccc2)nc(N2CCN(c3ncccc3C(F)(F)F)CC2)n1 [Compound 55, N-Isopropyl-N-methyl-N′-phenyl-6-[4-(3-trifluoromethyl-pyridin-2-yl)-piperazin-1-yl]-[1,3,5]triazine-2,4-diamine]"
7,≤ 1000,"C[C@@H]1CN(c2ncccc2Cl)CCN1c1nc(NCc2ccccc2)nc(Nc2ccc(C(F)(F)F)cc2)n1 [Compound 38, N-Benzyl-6-[4-(3-chloro-pyridin-2-yl)-2-methyl-piperazin-1-yl]-N′-(4-trifluoromethyl-phenyl)-[1,3,5]triazine-2,4-diamine (R)]"
8,≤ 1000,"OCc1nc(Nc2ccc(F)c(F)c2)cc(N2CCN(c3ncccc3C(F)(F)F)CC2)n1 [Compound 110, {4-(3,4-Difluoro-phenylamino)-6-[4-(3-trifluoromethyl-pyridin-2-yl)-piperazin-1-yl]-pyrimidin-2-yl}-methanol]"
9,≤ 1000,"FC(F)(F)c1ccc(Nc2nc(Cl)nc(N3CCN(c4ncccc4Cl)CC3)n2)cc1 [Compound 45, {4-Chloro-6-[4-(3-chloro-pyridin-2-yl)-piperazin-1-yl]-[1,3,5]triazin-2-yl}-(4-trifluoromethyl-phenyl)-amine]"
10,≤ 1000,"CCCCN(CCCC)c1nc(Nc2ccc(C(F)(F)F)cc2)nc(N2CCN(c3ncccc3Cl)C[C@H]2C)n1 [Compound 34, N,N-Dibutyl-6-[4-(3-chloro-pyridin-2-yl)-2-methyl-piperazin-1-yl]-N′-(4-trifluoromethyl-phenyl)-[1,3,5]triazine-2,4-diamine (R)]"
11,≤ 1000,"CC(C)CCNc1nc(Nc2ccc(C(F)(F)F)cc2)nc(N2CCN(c3ncccc3C(F)(F)F)CC2)n1 [Compound 21, N-(3-Methyl-butyl)-N′-(4-trifluoromethyl-phenyl)-6-[4-(3-trifluoromethyl-pyridin-2-yl)-piperazin-1-yl]-[1,3,5]triazine-2,4-diamine]"
12,≤ 1000,"CCCN(CCC)c1nc(Nc2ccc(C(F)(F)F)cc2)nc(N2CCN(c3ncccc3Cl)C[C@H]2C)n1 [Compound 33, 6-[4-(3-Chloro-pyridin-2-yl)-2-methyl-piperazin-1-yl]-N,N-dipropyl-N′-(4-trifluoromethyl-phenyl)-[1,3,5]triazine-2,4-diamine (R)]"
13,≤ 1000,"FC(F)(F)c1ccc(Nc2nc(N3CCCCC3)nc(N3CCN(c4ncccc4Cl)CC3)n2)cc1 [Compound 52, {4-[4-(3-Chloro-pyridin-2-yl)-piperazin-1-yl]-6-piperidin-1-yl-[1,3,5]triazin-2-yl}-(4-trifluoromethyl-phenyl)-amine]"
